Read-outs that look alike come from different tables or passages of the source.
How the values were obtained:
[1] = tested on: Key Broadleaf Weed and Crop Species; assay: Post-emergent Test II herbicidal activity (Table 5); type: in vivo; conditions: post-emergence, 336 h, post-emergent, 14 days after application; for pest or weed control at 70 g/ha: application rate 70 g ai/ha; for pest or weed control at 140 g/ha: application rate 140 g ai/ha
Outline: (§1)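 Visual injury ratings (0 = no injury, 100 = complete kill) were taken 14 d after treatment, relative to untreated plants. Seedlings at the first–second true leaf stage received overhead spray at 187 L/ha; the highest rate was serially diluted to ½×, ¼×, ⅛× and 1/16×.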

[2] = tested on: Key Grass and Sedge Weeds as well as Grass Crops; assay: Post-emergent Test II herbicidal activity (Table 6); type: in vivo; conditions: post-emergence, 336 h; for pest or weed control at 70 g/ha: application rate 70 g ai/ha; for pest or weed control at 140 g/ha: application rate 140 g ai/ha
Outline: as §1

[3] = ABUTH: velvetleaf (Abutilon theophrasti), read-out: Visual Growth Reduction (%) 14 Days After Application, ABUTH
[4] = AMARE: redroot pigweed (Amaranthus retroflexus), read-out: Visual Growth Reduction (%) 14 Days After Application, AMARE
[5] = BRSNN: oilseed-rape, canola (Brassica napus), read-out: Visual Growth Reduction (%) 14 Days After Application, BRSNN
[6] = CHEAL: lambsquarters (Chenopodium album), read-out: Visual Growth Reduction (%) 14 Days After Application, CHEAL
[7] = EPHHL: wild poinsettia (Euphorbia heterophylla), read-out: Visual Growth Reduction (%) 14 Days After Application, EPHHL
[8] = HELAN: sunflower (Helianthus annuus), read-out: Visual Growth Reduction (%) 14 Days After Application, HELAN
[9] = VIOTR: wild pansy (Viola tricolor), read-out: Visual Growth Reduction (%) 14 Days After Application, VIOTR
[10] = CYPES: yellow nutsedge (Cyperus esculentus), read-out: Visual Growth Reduction (%) 14 Days After Application, CYPES
[11] = DIGSA: crabgrass (Digitaria sanguinalis), read-out: Visual Growth Reduction (%) 14 Days After Application, DIGSA
[12] = ECHCG: barnyardgrass (Echinochloa crus-galli), read-out: Visual Growth Reduction (%) 14 Days After Application, ECHCG
[13] = ORYSA: rice (Oryza sativa), read-out: Visual Growth Reduction (%) 14 Days After Application, ORYSA
[14] = SETFA: giant foxtail (Setaria faberi), read-out: Visual Growth Reduction (%) 14 Days After Application, SETFA
[15] = SORVU: grain sorghum (Sorghum vulgare), read-out: Visual Growth Reduction (%) 14 Days After Application, SORVU
[16] = TRZSS (wheat, Triticum aestivum), read-out: Visual Growth Reduction (%) 14 Days After Application, TRZSS
[17] = ZEAMX: maize, corn (Zea mays), read-out: Visual Growth Reduction (%) 14 Days After Application, ZEAMX

Nc1cc(-c2cc(F)c(C(F)F)cc2F)nc(C(=O)O)c1Cl [Compound 174]
75 to 84%: pest or weed control at 70 g/ha [1, 3] | pest or weed control at 140 g/ha [1, 3]
85 to 94%: pest or weed control at 140 g/ha [2, 10] | pest or weed control at 140 g/ha [2, 12]
60 to 74%: pest or weed control at 140 g/ha [1, 9] | pest or weed control at 70 g/ha [2, 10] | pest or weed control at 70 g/ha [2, 12]
171.8 to 173.9 °C: melting point
95 to 100%: pest or weed control at 70 g/ha [1, 4] | pest or weed control at 140 g/ha [1, 4] | pest or weed control at 70 g/ha [1, 5] | pest or weed control at 140 g/ha [1, 5] | pest or weed control at 70 g/ha [1, 6] | pest or weed control at 140 g/ha [1, 6] | pest or weed control at 70 g/ha [1, 7] | pest or weed control at 140 g/ha [1, 7] | pest or weed control at 70 g/ha [1, 8] | pest or weed control at 140 g/ha [1, 8]
0 to 29%: pest or weed control at 70 g/ha [2, 11] | pest or weed control at 70 g/ha [2, 13] | pest or weed control at 140 g/ha [2, 13] | pest or weed control at 70 g/ha [2, 14] | pest or weed control at 70 g/ha [2, 15] | pest or weed control at 140 g/ha [2, 15] | pest or weed control at 70 g/ha [2, 16] | pest or weed control at 140 g/ha [2, 16] | pest or weed control at 70 g/ha [2, 17] | pest or weed control at 140 g/ha [2, 17]
45 to 59%: pest or weed control at 70 g/ha [1, 9] | pest or weed control at 140 g/ha [2, 11] | pest or weed control at 140 g/ha [2, 14]

Source: patent US9113629B2, “4-amino-6-(4-substituted-phenyl)-picolinates and 6-amino-2-(4-substituted-phenyl)-pyrimidine-4-carboxylates and their use as herbicides” (DOW AGROSCIENCES LLC, priority 2013, dated 2015)
